{
  "source": "BindingDB's records for doi:10.1016/j.bmc.2016.08.020",
  "about": "(University of British Columbia, 2016)",
  "test": "Activation of p75NTR in mouse hippocampal neurons assessed as increase in cell survival after 48 hrs by MTT assay",
  "data": [
    {"smiles": "CCC(C)C(N)C(=O)NCCN1CCOCC1", "note": "(stereo unspecified)", "values": [
      {"measurement": "EC50", "value": 20, "unit": "nM"}
    ]}
  ]
}
